From ChEMBL document CHEMBL5365413, “Optimizing metabolic stability of phosphodiesterase 5 inhibitors: Discovery of a potent N-(pyridin-3-ylmethyl)quinoline derivative targeting synaptic plasticity” (Bioorg Med Chem Lett, 2023) come the findings set out here.

Molecules are shown by their SMILES. Active and inactive are the calls of the source. The calls are words filed in the database; no cut-off is given here.

For data set [1], the target named is cGMP-specific 3',5'-cyclic phosphodiesterase (Homo sapiens, UniProt O76074). Kind of data set: Inhibition of human recombinant PDE5A1 by fluorescence based assay.
A short description of data set [2]: Metabolic stability in human liver microsomes assessed as intrinsic clearance. In kind it is ADME, Microsome. Background: Microsomes from liver hold many membrane-bound enzymes, among them those of drug oxidation.
Data set [3] in a line: Metabolic stability in human liver microsomes assessed as half life. In kind it is ADME, Microsome.
Data set [4] has as its system Hippocampus. Kind of data set: Neuroprotective activity against o-Tau perfused mouse hippocampus tissue assessed as restoration of synaptic plasticity by measuring hippocampal […] at 50 nM for 10 min followed by tetanus stimulation and measured for 2 hrs by electrophysiology analysis. As to conditions: time 130.0 min. The class given is functional, tissue-based.
The nature of data set [5]: Selectivity index, ratio of IC50 for inhibition of PDE10 (unknown origin) to IC50 for inhibition of human recombinant PDE5A1.
Data set [6] in a line: Inhibition of PDE8 (unknown origin) by fluorescent based assay. More on the design: species or system Homo sapiens.
Data set [7] can be described thus: Selectivity index, ratio of IC50 for inhibition of PDE11 (unknown origin) to IC50 for inhibition of human recombinant PDE5A1.
Data set [8] in a line: Selectivity index, ratio of IC50 for inhibition of PDE9 (unknown origin) to IC50 for inhibition of human recombinant PDE5A1.
The target of data set [9] is Phosphodiesterase 7 (Homo sapiens, UniProt Q13946+Q9NP56). Kind of data set: Inhibition of PDE7 (unknown origin) by fluorescent based assay. The class given is protein assay.
A short description of data set [10]: Selectivity index, ratio of IC50 for inhibition of PDE2 (unknown origin) to IC50 for inhibition of human recombinant PDE5A1.
A short description of data set [11]: Inhibition of PDE6 (unknown origin) by fluorescent based assay. Set-up: species or system Homo sapiens.
A short description of data set [12]: Inhibition of PDE1 (unknown origin) by fluorescent based assay. Set-up: species or system Homo sapiens.
Data set [13] in a line: Inhibition of PDE10 (unknown origin) by fluorescent based assay. More on the design: species or system Homo sapiens.
For data set [14], the system named is Hippocampus. Kind of data set: Neuroprotective activity against mouse hippocampus tissue assessed as restoration of synaptic plasticity by measuring residual potentiation at 50 nM for 10 min followed by tetanus stimulation and measured for 2 hrs by electrophysiology analysis relative to control. The class given is functional, tissue-based. As to conditions: time 130.0 min.

Data set [15] can be described thus: Inhibition of PDE9 (unknown origin) by fluorescent based assay. Set-up: species or system Homo sapiens.
Data set [16] is described as follows: Inhibition of PDE11 (unknown origin) by fluorescent enzymatic assay. Set-up: species or system Homo sapiens.
Data set [17] can be described thus: Selectivity index, ratio of IC50 for inhibition of PDE7 (unknown origin) to IC50 for inhibition of human recombinant PDE5A1.
Data set [18] can be described thus: Selectivity index, ratio of IC50 for inhibition of PDE8 (unknown origin) to IC50 for inhibition of human recombinant PDE5A1.
Data set [19] can be described thus: Selectivity index, ratio of IC50 for inhibition of PDE1 (unknown origin) to IC50 for inhibition of human recombinant PDE5A1.
Data set [20] is described as follows: Inhibition of PDE2 (unknown origin) by fluorescent based assay. More on the design: species or system Homo sapiens.
Data set [21] can be described thus: Selectivity index, ratio of IC50 for inhibition of PDE3 (unknown origin) to IC50 for inhibition of human recombinant PDE5A1.
For data set [22], the system named is Hippocampus. Kind of data set: Neuroprotective activity against o-Tau perfused mouse hippocampus tissue assessed as restoration of synaptic plasticity by measuring residual potentiation at 50 nM for 10 min followed by tetanus stimulation and measured for 2 hrs by electrophysiology analysis relative to control. The class given is functional, tissue-based. Particulars: time 130.0 min.

Data set [23] in a line: Selectivity index, ratio of IC50 for inhibition of PDE6 (unknown origin) to IC50 for inhibition of human recombinant PDE5A1.
Data set [24] addresses Phosphodiesterase 4 (Homo sapiens, UniProt P27815+Q08499+Q07343+Q08493). Kind of data set: Inhibition of PDE4 (unknown origin) by fluorescent based assay. The class given is protein assay.
Data set [25] can be described thus: Selectivity index, ratio of IC50 for inhibition of PDE4 (unknown origin) to IC50 for inhibition of human recombinant PDE5A1.
A short description of data set [26]: Inhibition of PDE3 (unknown origin) by fluorescent based assay. More on the design: species or system Homo sapiens.

Take `COc1cc(CNc2c(CO)cnc3c(C4CC4)cc(C#N)cc23)ccn1`: in data set [1], the IC50 came out at 180 nM. Also, in data set [2], the CLH worked out at 48 µL/min/mg. For the same molecule, in [3], the t1/2 stood at 28.8 min.
The like results for `N#Cc1cc(C2CC2)c2ncc(CO)c(NCc3ccnc(Cl)c3)c2c1` were, in that order, 820 nM, 80 µL/min/mg and 17.3 min.
Turning to `COc1ccc(CNc2c(CO)cnc3c(C4CC4)cc(C#N)cc23)cn1`, the result in [4] and in data set [22] was Active. For the same molecule, the Ratio IC50 was more than 500 in data set [5]; more than 500 in [7]; more than 500 in [8]; 9 in data set [10]; more than 500 in data set [17]; more than 500 in data set [18]. For the same molecule, the Ratio IC50 in [19] is more than 500; in data set [21], more than 500; in [23] it was 13; in data set [25] it was more than 500. Moreover, the IC50 in data set [6] (read-out: IC50) is more than 10000 nM; in [9], more than 10000 nM; in data set [11], 260 nM; in data set [12] (read-out: IC50) it was more than 10000 nM; in data set [13] (read-out: IC50), more than 10000 nM; in data set [15] (read-out: IC50), more than 10000 nM. The concentration for half-maximal inhibition (IC50) in data set [16] (read-out: IC50) was more than 10000 nM; in [20], 180 nM; in data set [24], more than 10000 nM; in data set [26] (read-out: IC50) it was more than 10000 nM. Further, the result in [14] was inactive. Moreover, the CLH in data set [2] is 31 µL/min/mg. Also, the t1/2 in [3] is reported as 44.6 min.
For the molecule `N#Cc1cc(C2CC2)c2ncc(CO)c(NCc3ccc4c(c3)OCO4)c2c1`, in data set [1], the IC50 was 190 nM. Moreover, the CLH in data set [2] came to 88 µL/min/mg. In addition, the t1/2 in data set [3] turned out to be 15.7 min.
`COc1ccc(CNc2c(CO)cnc3c(C4CC4)cc(C#N)cc23)cc1Cl`: the CLH in [2] came to 80 µL/min/mg. Moreover, the t1/2 in [3] was 20.5 min.
Regarding `[2H]C([2H])(Nc1c(CO)cnc2c(C3CC3)cc(C#N)cc12)c1ccc(OC)c(Cl)c1`, in data set [1], the 50% inhibitory concentration (IC50) worked out at 5 nM. Also, the CLH in [2] came to 85 µL/min/mg. Further, in data set [3], the t1/2 was 16.4 min.
Regarding `COc1cc(CNc2c(CO)cnc3c(C4CC4)cc(C#N)cc23)cc(OC)c1OC`, in [1], the half-maximal inhibitory concentration (IC50) came out at 3400 nM.
Same read-out and setting: to `CCOC(=O)c1cnc2c(C3CC3)cc(C#N)cc2c1NCc1ccc(OC)nc1` belongs 1300 nM.
Consider `COc1ncc(CNc2c(CO)cnc3c(C4CC4)cc(C#N)cc23)cc1Cl`, for which the concentration for half-maximal inhibition (IC50) was 30 nM in data set [1]; “Not Active” in [6]; 58 nM in data set [11]; “Not Active” in data set [12]; “Not Active” in data set [13]; “Not Active” in [15]. The IC50 result was “Not Active” in [16], more than 10000 nM in data set [20] and “Not Active” in [26]. Moreover, the CLH in data set [2] was found to be 72 µL/min/mg. Besides, the t1/2 in data set [3] was 19.5 min. Besides, the Ratio IC50 in data set [23] is 1.9.
In the case of `Cn1ccc2cc(CNc3c(CO)cnc4c(C5CC5)cc(C#N)cc34)ccc21`, in data set [1], the 50% inhibitory concentration (IC50) was found to be 2800 nM.

The IC50 is the concentration that inhibits the measured activity by half.
